Assay results: patent US20220306989A1, “CELL THERAPY METHODS” (Universität Basel, priority 2019, published 2022)
Numbered stars: 1 amine (or outer) side, 2 acyl side, 3 side chain; on linkers, the order of the positions; unused ones are H or OH. Bridge positions count the residues as written; N and C are the ends. Square brackets hold non-standard residues; d marks the D form. Peptide text beside a SMILES is read from it. I, II: the chains in the order shown. Actinocin(9to1) = Cc1c2oc3c(C)ccc(C(=O)[*:1])c3nc-2c(C(=O)[*:2])c(N)c1=O; NMeV = CN[C@H](C(=O)O)C(C)C; Sar = CNCC(=O)O

How the values were obtained:
[1] = tested on: NV and CE NK cells; assay: IFN-γ measurement in human NK cells (bead-based immunoassay of supernatants); type: cell-based; conditions: IL-12/IL-18 stimulation 6 hours, 2-DG 10 mM pre-incubated 30 min
Description: (§1) Blood samples were obtained from healthy donors after written informed consent. Peripheral blood mononuclear cells were isolated by standard density-gradient centrifugation protocols (Lymphoprep; Fresenius Kabi). NK cells were negatively selected using EasySep negative NK cell isolation kit (Stemcell). Human NK cells were maintained in RPMI-1640 medium (Invitrogen) supplemented with 10% heat-inactivated human AB serum, 50 U/ml penicillin (Invitrogen) and 50 μg/ml streptomycin (Invitrogen) (R10AB). To generate CE NK cells, isolated NK cells were primed in R10AB containing IL-12 (10 ng/ml, R&D systems), IL-15 (1 ng/ml, PeproTech) and IL-18 (50 ng/ml, R&D systems) over-night. The next day cells were washed twice with PBS and maintained in R10AB containing IL-15 (1 ng/ml) until stimulation. Every 2-3 days 50% of the medium was replaced with fresh IL-IS (1 ng/ml). After 7 days cells were stimulated in R10AB containing IL-12 (10 ng/ml), IL-15 (1 ng/ml) and IL-18 (50 ng/ml) or with K562 leukemia targets (effector: target ratio, 5:1) for 6 hours. […]
NK cells were seeded in U-bottom 96 well plates (2×10^5 cells/well) using R10AB. […] Cell supernatants were harvested after stimulation and IFN-γ was measured using a human Th1 cytokine bead-based immunoassay (Legendplex, Biolegend) according to manufacturer's protocol.

[2] = tested on: NV and CE NK cells; assay: Quantitative real-time PCR of IFNG and TFRC mRNA in NK cells; type: cell-based, human
Description: as §1, with “ng/ml).” for “ng/ml). After 7 days cells were stimulated in R10AB containing IL-12 (10 ng/ml), IL-15 (1 ng/ml) and IL-18 (50 ng/ml) or with K562 leukemia targets (effector: target ratio, 5:1) for 6 hours.”
RNA was isolated from NK cells using Trizol (Thermo Fisher Scientific) and chloroform (Sigma-Aldrich) according to manufacturer's protocol, then purified with RNeasy RNA purification mini kit (QIAGEN, Germany). RNA concentration was determined using the NanoDrop 2000C (Thermo Fisher Scientific). […] Quantitative PCR for IFNG, TFRC and 18S mRNA was done in triplicate using commercially designed primers from Life Technologies (Hs00989291_m1, Hs00951083_m1, Hs03003631_g1). […]

[3] = tested on: NV and CE NK cells; assay: Flow cytometry of surface CD71 / CD69 on human NK cells; type: cell-based
Description: as §1
For surface staining NK cells were stained for 30 min at 4° C. with saturating concentrations of antibodies. […] Data were analyzed with Flowjo®_V10.5 (Tree Star, USA).

[4] = tested on: NV and CE NK cells; assay: Transferrin uptake assay (Tf-488); type: cell-based, human; conditions: IL-12/IL-18 + 2-DG treated NK cells
Description: as §1
NK cells were seeded in U-bottom 96-well plates (2×10^5 cells/well). […] Cells were resuspended in FACS buffer and analyzed by flow cytometry. […] Data were analyzed with Flowjo®_V10.5 (Tree Star, USA).

[5] = tested on: NV and CE NK cells; type: cell-based
Description: (§2) Blood samples were obtained from healthy donors after written informed consent. Peripheral blood mononuclear cells were isolated by standard density-gradient centrifugation protocols (Lymphoprep; Fresenius Kabi). NK cells were negatively selected using EasySep negative NK cell isolation kit (Stemcell). Human NK cells were maintained in RPMI-1640 medium (Invitrogen) supplemented with 10% heat-inactivated human AB serum, 50 U/ml penicillin (Invitrogen) and 50 μg/ml streptomycin (Invitrogen) (R10AB). To generate CE NK cells, isolated NK cells were primed in R10AB containing IL-12 (10 ng/ml, R&D systems), IL-15 (1 ng/ml, PeproTech) and IL-18 (50 ng/ml, R&D systems) over-night. The next day cells were washed twice with PBS and maintained in R10AB containing IL-15 (1 ng/ml) until stimulation. Every 2-3 days 50% of the medium was replaced with fresh IL-IS (1 ng/ml). After 7 days cells were stimulated in R10AB containing IL-12 (10 ng/ml), IL-15 (1 ng/ml) and IL-18 (50 ng/ml) or with K562 leukemia targets (effector: target ratio, 5:1) for 6 hours. When indicated, cells were pre-incubated with 2-deoxy-D-glucose (10 mM, Sigma-Aldrich), Actinomycin D (1 and 10 μM, Sigma-Aldrich), Cycloheximide (10 and 100 μg/ml, Sigma-Aldrich), 2,2′-Bipyridyl (1, 10, 50 and 100 μM, Sigma-Aldrich) or 6-aminonicotinamide (50 μM, Sigma-Aldrich) for 30 min and then stimulated in R10AB containing IL-12 (10 ng/ml), IL-1S (1 ng/ml) and IL-18 (50 ng/ml) for 6 hours.
For cell proliferation assays, NK cells were loaded prior to activation with the cell-proliferation dye CFSE (1 μM, Molecular probes, USA) and seeded in 96-well plates. Cells were washed twice and maintained in R10AB with IL-15 (1 ng/ml), when indicated in the presence of inhibitors. A fixable live-dead cell stain (Fixable Viability Dye, eBioscience or Zombie Aqua, Biolegend) was used to exclude dead cells prior to sample acquisition. CFSE dilution was analyzed 65 hours post-stimulation by flow cytometry. Samples were acquired using a BD AccuriC6 or a CytoFLEX flow cytometer (Beckman Coulter). Data were analyzed with Flowjo®_V 10.5 (Tree Star, USA).

[6] = tested on: NV and CE NK cells; assay: Immunoblot of total CD71, IRP1, IRP2 in human NK cells; type: cell-based; conditions: IL-12/IL-18 + ActD 1 and 10 μM or CHX 10 and 100 μg/ml
Description: as §2
Protein concentrations were determined by BCA protein assay kit (Thermo Fisher Scientific). Total cell lysates were separated using 4%-15% Mini Protean TGX Gel (Bio-Rad, Hercules Calif., USA), and transferred to nitrocellulose membranes using Trans-Blot Turbo Transfer (Bio-Rad, Hercules Calif., USA). […] Blots were stained with appropriate secondary antibodies and the odyssey imaging system (LICOR, Lincoln Nebr., USA) was used for visualization, and the ImageJ software (1.48v) for quantification.

With `O=CC[C@@H](O)[C@H](O)[C@H](O)CO` [2-DG, 2-deoxy-d-glucose] as the compound, how does the IFN-γ secretion [1] read?
Its IFN-γ secretion is “similarly reduced”.

And the “TFRC mRNA abundance” value ([2]; IL-12/IL-18 + 2-DG)?
Its value is “similarly reduced”.

What about the “IFNG mRNA abundance” value ([2]; IL-12/IL-18 stimulation 6 hours, 2-DG 10 mM pre-incubated 30 min) of the same compound?
The value was “similarly reduced”.

And the “Cell surface expression of CD71” value ([3]; IL-12/IL-18 + 2-DG, NV and CE NK cells)?
Its value is “followed the same pattern”.

What about the “transferrin uptake (Tf-488)” value [4] of the same compound?
Its value is “reduced transferrin uptake”.

`NC(=O)c1ccc(N)nc1` [6AN, 6-aminonicotinamide] was tested. Which “expansion / proliferation of cytokine-stimulated NK cells (CFSE dilution)” value ([5]; IL-12/IL-18 + 6AN 50 μM, NV and CE NK cells) did it give?
The value was “prevented expansion of cytokine-stimulated NK cells”.

With `Cc1c2oc3c(C)ccc(C(=O)N[C@@H]4C(=O)N[C@H](C(C)C)C(=O)N5CCC[C@H]5C(=O)N(C)CC(=O)N(C)[C@@H](C(C)C)C(=O)O[C@@H]4C)c3nc-2c(C(=O)N[C@@H]2C(=O)N[C@H](C(C)C)C(=O)N3CCC[C@H]3C(=O)N(C)CC(=O)N(C)[C@@H](C(C)C)C(=O)O[C@@H]2C)c(N)c1=O` [Actinomcyin D, Actinomycin D] (I: T[dV]P[Sar][NMeV] / II: T[dV]P[Sar][NMeV]; ester I:1-I:C, II:1-II:C; linker I:N-II:N via Actinocin(9to1)) as the compound, how does the “stimulation-induced upregulation of CD71 (total CD71, Western blot)” value (from here on “stimulation-induced upregulation of CD71”) [6] read?
Its value is “entirely prevented stimulation-induced upregulation of CD71”.

What about the “stimulation-induced upregulation of CD71” value ([6]; listed as actinomycin) of the same compound?
The value was “prevented stimulation-induced upregulation of CD71”.

Which cell viability [5] does the source give for `c1ccc(-c2ccccn2)nc1` [BIP, 2,2′-bipyridyl] here?
Its cell viability is “minimal effects on cell viability”.

What about the “NK cell proliferation (CFSE dilution)” value ([5]; IL-12/IL-18 + BIP 1, 10 and 50 μM, NV and CE NK cells, 65 hours post-stimulation) of the same compound?
The value was “inhibited NK cell proliferation in a dose-dependent manner”.

And the “NK cell activation as assessed by CD69 expression” value ([3]; IL-12/IL-18 + BIP 100 μM)?
Its value is “no effect on NK cell activation”.

`C[C@@H]1C[C@@H]([C@H](O)CC2CC(=O)NC(=O)C2)C(=O)[C@@H](C)C1` [cycloheximide] was tested. Which “stimulation-induced upregulation of CD71” value [6] did it give?
The value was “entirely prevented stimulation-induced upregulation of CD71”.
